Assay results as given in ChEMBL document CHEMBL4184257, “Design, synthesis and antibacterial evaluation of honokiol derivatives” (2018).
In brackets after ≈: the same amount, converted by molar mass. Activity calls are given as the source filed them. No cut-off for these calls is given here.

How the values were obtained:
[1] = system: Staphylococcus aureus; assay: Antibacterial activity against Staphylococcus aureus ATCC 25923 incubated at 37 degC for 20 hrs by standard broth microdilution method; format: functional; settings: ATCC 25923, 20 h
[2] = system: Escherichia coli; assay: Antibacterial activity against Escherichia coli ATCC 25922 incubated at 37 degC for 20 hrs by standard broth microdilution method; format: functional; settings: ATCC 25922, 20 h
[3] = system: Klebsiella pneumoniae; assay: Antibacterial activity against Klebsiella pneumoniae ATCC 4352 incubated at 37 degC for 20 hrs by agar dilution method; format: functional; settings: ATCC 4352, 20 h
[4] = system: Staphylococcus aureus; assay: Antibacterial activity against Staphylococcus aureus; format: functional
[5] = system: Staphylococcus aureus; assay: Antibacterial activity against Staphylococcus aureus ATCC 6538 incubated at 37 degC for 20 hrs by agar dilution method; format: functional; settings: ATCC 6538, 20 h
[6] = system: Staphylococcus aureus; assay: Antibacterial activity against Staphylococcus aureus ATCC 43300 incubated at 37 degC for 20 hrs by agar dilution method; format: functional; settings: ATCC 43300, 20 h
[7] = system: Streptococcus pyogenes; assay: Antibacterial activity against Streptococcus pyogenes ATCC 19615 incubated at 37 degC for 20 hrs by agar dilution method; format: functional; settings: ATCC 19615, 20 h
[8] = system: Enterococcus faecalis; assay: Antibacterial activity against Enterococcus faecalis ATCC 35667 incubated at 37 degC for 20 hrs by agar dilution method; format: functional; settings: ATCC 35667, 20 h
[9] = system: Candida albicans; assay: Antimicrobial activity against Candida albicans; format: functional
[10] = system: Staphylococcus aureus; assay: Antibacterial activity against Staphylococcus aureus ATCC 29213 incubated at 37 degC for 20 hrs by agar dilution method; format: functional; settings: ATCC 29213, 20 h
[11] = system: Staphylococcus aureus; assay: Antibacterial activity against Staphylococcus aureus CMCC 26003 incubated at 37 degC for 20 hrs by agar dilution method; format: functional; settings: CMCC 26003, 20 h
[12] = system: Staphylococcus aureus; assay: Antibacterial activity against Staphylococcus aureus ATCC 33591 incubated at 37 degC for 20 hrs by agar dilution method; format: functional; settings: ATCC 33591, 20 h
[13] = system: Enterococcus faecalis; assay: Antibacterial activity against Enterococcus faecalis ATCC 33186 incubated at 37 degC for 20 hrs by agar dilution method; format: functional; settings: ATCC 33186, 20 h
[14] = system: Staphylococcus epidermidis; assay: Antibacterial activity against Staphylococcus epidermidis ATCC 12228 incubated at 37 degC for 20 hrs by agar dilution method; format: functional; settings: ATCC 12228, 20 h
[15] = system: Klebsiella pneumoniae; assay: Antibacterial activity against Klebsiella pneumoniae CMCC 46117 incubated at 37 degC for 20 hrs by agar dilution method; format: functional; settings: CMCC 46117, 20 h
[16] = system: Pseudomonas aeruginosa; assay: Antibacterial activity against Pseudomonas aeruginosa ATCC 9027 incubated at 37 degC for 20 hrs by agar dilution method; format: functional; settings: ATCC 9027, 20 h
[17] = system: Streptococcus mutans; assay: Antibacterial activity against Streptococcus mutans; format: functional
[18] = system: Pseudomonas aeruginosa; assay: Antibacterial activity against Pseudomonas aeruginosa ATCC 27853 incubated at 37 degC for 20 hrs by agar dilution method; format: functional; settings: ATCC 27853, 20 h
[19] = system: Pseudomonas aeruginosa; assay: Antibacterial activity against Pseudomonas aeruginosa CMCC 10104 incubated at 37 degC for 20 hrs by agar dilution method; format: functional; settings: CMCC 10104, 20 h
[20] = system: Klebsiella pneumoniae; assay: Antibacterial activity against Klebsiella pneumoniae ATCC 700603 incubated at 37 degC for 20 hrs by agar dilution method; format: functional; settings: ATCC 700603, 20 h
[21] = system: Staphylococcus epidermidis; assay: Antibacterial activity against Staphylococcus albus AS1.3374 incubated at 37 degC for 20 hrs by agar dilution method; format: functional; settings: AS1.3374, 20 h
[22] = system: Staphylococcus aureus; assay: Bacteriostatic activity against Staphylococcus aureus ATCC 25923 assessed as bacterial load at 1 times MIC incubated for 24 hrs by time kill curve assay; format: functional
[23] = system: Staphylococcus aureus; assay: Induction of cell wall destruction in Staphylococcus aureus ATCC 25923 at 4 times MIC incubated for 1 hr Gram staining based assay; format: functional, organism-based
[24] = system: Staphylococcus aureus; assay: Induction of cell wall destruction in Staphylococcus aureus ATCC 25923 at 1 times MIC incubated for 0.5 hrs Gram staining based assay; format: functional, organism-based
[25] = system: Staphylococcus aureus; assay: Bactericidal activity against Staphylococcus aureus ATCC 25923 at 4 times MIC incubated for 24 hrs by time kill curve assay; format: functional, organism-based
[26] = system: Staphylococcus aureus; assay: Bactericidal activity against Staphylococcus aureus ATCC 25923 assessed as bacterial load at 4 times MIC measured within 2 hrs post dose by time kill curve assay; format: functional
[27] = system: Staphylococcus aureus; assay: Bacteriostatic activity against Staphylococcus aureus ATCC 25923 at 1 times MIC incubated for 24 hrs by time kill curve assay; format: functional, organism-based

`C=CCc1cc(CO)c(O)c(-c2ccc(O)c(CC=C)c2)c1` gave an MIC90 [1] of 32 µg/mL (≈ 108 µM) and an MIC90 [2] greater than 256 µg/mL.

For `C=CCc1cc(CN2CCCC(NC(=O)OC(C)(C)C)C2)c(O)c(-c2ccc(O)c(CC=C)c2)c1` (stereo not drawn), the MIC90 [1] was greater than 256 µg/mL and the MIC90 [2] was greater than 256 µg/mL.

Work on `C=CCc1ccc(O)c(-c2ccc(O)c(CC=C)c2)c1` [HONOKIOL] yielded an MIC [3] of 32 µg/mL (≈ 120 µM), an MIC [4] of 50 µg/mL (≈ 188 µM) and an MIC [5] of 16 µg/mL (≈ 60.1 µM). For the same compound, the MIC [6] was 16 µg/mL (≈ 60.1 µM), the MIC [7] was 8 µg/mL (≈ 30 µM) and the MIC [8] was 32 µg/mL (≈ 120 µM). For the same compound, the MIC [9] was 32 µg/mL (≈ 120 µM), the MIC [10] was 16 µg/mL (≈ 60.1 µM) and the MIC90 [1] was 16 µg/mL (≈ 60.1 µM). The MIC [11] was 16 µg/mL (≈ 60.1 µM), the MIC [12] was 16 µg/mL (≈ 60.1 µM) and the MIC [13] was 32 µg/mL (≈ 120 µM). The MIC [14] was 16 µg/mL (≈ 60.1 µM), the MIC [2] was greater than 256 µg/mL and the MIC90 [2] was greater than 256 µg/mL. The MIC [15] was 32 µg/mL (≈ 120 µM), the MIC [16] was greater than 256 µg/mL and the MIC [17] was 10 µg/mL (≈ 37.5 µM). The MIC [18] was greater than 256 µg/mL, the MIC [19] was greater than 256 µg/mL and the MIC [20] was greater than 256 µg/mL. For the same compound, the MIC [21] was 16 µg/mL (≈ 60.1 µM).

With `C=CCc1cc(CN2CCC(N3CCC(N)CC3)CC2)c(O)c(-c2ccc(O)c(CC=C)c2)c1` the MIC [3] was 8 µg/mL (≈ 17.3 µM), the Activity [22] was 4 - 5 log10CFU/ml and the MIC [5] was 8 µg/mL (≈ 17.3 µM). For the same compound, the MIC [6] was 8 µg/mL (≈ 17.3 µM), the MIC [7] was 8 µg/mL (≈ 17.3 µM) and the Activity [23] was “Active”. For the same compound, the MIC [8] was 8 µg/mL (≈ 17.3 µM), the Activity [24] was “Active” and the MIC [10] was 8 µg/mL (≈ 17.3 µM). The MIC [1] was 8 µg/mL (≈ 17.3 µM), the MIC90 [1] was 8 µg/mL (≈ 17.3 µM) and the MIC [11] was 8 µg/mL (≈ 17.3 µM). It also gave an MIC [12] of 8 µg/mL (≈ 17.3 µM), an MIC [13] of 8 µg/mL (≈ 17.3 µM) and an MIC [14] of 8 µg/mL (≈ 17.3 µM). The Activity [25] was “Dose-dependent effect”, the MIC [2] was 16 µg/mL (≈ 34.7 µM) and the MIC90 [2] was 16 µg/mL (≈ 34.7 µM). The Activity [26] was 0 log10CFU/ml, the MIC [15] was 8 µg/mL (≈ 17.3 µM) and the MIC [16] was 64 µg/mL (≈ 139 µM). The MIC [18] was 64 µg/mL (≈ 139 µM), the MIC [19] was 64 µg/mL (≈ 139 µM) and the MIC [20] was 64 µg/mL (≈ 139 µM). The Activity [27] was “Dose-dependent effect” and the MIC [21] was 8 µg/mL (≈ 17.3 µM).

`C=CCc1cc(CN2CCCC(C)C2)c(O)c(-c2ccc(O)c(CC=C)c2)c1` (stereo not drawn) was tested, and the MIC90 [1] was greater than 256 µg/mL and the MIC90 [2] was greater than 256 µg/mL.

In the case of `C=CCc1cc(CO)c(O)c(-c2cc(CO)c(O)c(CC=C)c2)c1`, the MIC90 [1] is reported as 64 µg/mL (≈ 196 µM) and the MIC90 [2] is reported as greater than 256 µg/mL.

Work on `C=CCc1cc(CN2CCN(C(C)=O)CC2)c(O)c(-c2ccc(O)c(CC=C)c2)c1` yielded an MIC90 [1] greater than 256 µg/mL and an MIC90 [2] greater than 256 µg/mL.

For `CN[C@H](CC(C)C)C(=O)N[C@H]1C(=O)N[C@@H](CC(N)=O)C(=O)N[C@H]2C(=O)N[C@H]3C(=O)N[C@H](C(=O)N[C@H](C(=O)O)c4cc(O)cc(O)c4-c4cc3ccc4O)[C@H](O)c3ccc(c(Cl)c3)Oc3cc2cc(c3O[C@@H]2O[C@H](CO)[C@@H](O)[C@H](O)[C@H]2O[C@H]2C[C@](C)(N)[C@H](O)[C@H](C)O2)Oc2ccc(cc2Cl)[C@H]1O` [VANCOMYCIN], the Activity [23] was “Active”, the Activity [24] was “Active” and the MIC90 [1] was 1 µg/mL (≈ 0.69 µM). The Activity [25] was “Active”, the MIC90 [2] was greater than 256 µg/mL and the Activity [27] was “Active”.

`C=CCc1cc(CN2CCC(N3CCCC(N)C3)CC2)c(O)c(-c2ccc(O)c(CC=C)c2)c1` (stereo not drawn) showed an MIC [3] of 16 µg/mL (≈ 34.7 µM), an MIC [5] of 16 µg/mL (≈ 34.7 µM) and an MIC [6] of 16 µg/mL (≈ 34.7 µM). For the same compound, the MIC [7] was 32 µg/mL (≈ 69.3 µM), the MIC [8] was 16 µg/mL (≈ 34.7 µM) and the MIC [10] was 16 µg/mL (≈ 34.7 µM). The MIC [1] was 16 µg/mL (≈ 34.7 µM), the MIC90 [1] was 16 µg/mL (≈ 34.7 µM) and the MIC [11] was 16 µg/mL (≈ 34.7 µM). It also gave an MIC [12] of 16 µg/mL (≈ 34.7 µM), an MIC [13] of 16 µg/mL (≈ 34.7 µM) and an MIC [14] of 16 µg/mL (≈ 34.7 µM). For the same compound, the MIC [2] was 128 µg/mL (≈ 277 µM), the MIC90 [2] was 128 µg/mL (≈ 277 µM) and the MIC [15] was 32 µg/mL (≈ 69.3 µM). The MIC [16] was greater than 256 µg/mL, the MIC [18] was greater than 256 µg/mL and the MIC [19] was 64 µg/mL (≈ 139 µM). For the same compound, the MIC [20] was greater than 256 µg/mL and the MIC [21] was 16 µg/mL (≈ 34.7 µM).

`C=CCc1cc(CN2CCN(C(C)C)CC2)c(O)c(-c2ccc(O)c(CC=C)c2)c1` showed an MIC90 [1] greater than 256 µg/mL and an MIC90 [2] of 128 µg/mL (≈ 315 µM).

`C=CCc1cc(CN2CCC(NC(=O)OC(C)(C)C)CC2)c(O)c(-c2ccc(O)c(CC=C)c2)c1` was tested, and the MIC90 [1] was greater than 256 µg/mL and the MIC90 [2] was greater than 256 µg/mL.

`CC(=O)NC[C@H]1CN(c2ccc(N3CCOCC3)c(F)c2)C(=O)O1` [LINEZOLID] gave an MIC [7] of 0.5 µg/mL (≈ 1.48 µM), an MIC90 [1] of 2 µg/mL (≈ 5.93 µM) and an MIC [14] of 2 µg/mL (≈ 5.93 µM). The Activity [25] was “Active”, the MIC90 [2] was greater than 256 µg/mL and the Activity [27] was “Active”. It also gave an MIC [21] of 2 µg/mL (≈ 5.93 µM).

In the case of `C=CCc1cc(CN2CCN(CCOC)CC2)c(O)c(-c2ccc(O)c(CC=C)c2)c1`, the MIC90 [1] is reported as greater than 256 µg/mL and the MIC90 [2] is reported as greater than 256 µg/mL.

`NC[C@H]1O[C@H](O[C@H]2[C@H](O)[C@@H](O[C@H]3O[C@H](CO)[C@@H](O)[C@H](N)[C@H]3O)[C@H](N)C[C@@H]2N)[C@H](N)C[C@@H]1O` [TOBRAMYCIN] showed an MIC [3] of 1 µg/mL (≈ 2.14 µM), an MIC [2] of 0.25 µg/mL (≈ 0.535 µM) and an MIC [15] of 0.25 µg/mL (≈ 0.535 µM). For the same compound, the MIC [16] was 0.5 µg/mL (≈ 1.07 µM), the MIC [18] was 0.25 µg/mL (≈ 0.535 µM) and the MIC [19] was 2 µg/mL (≈ 4.28 µM). For the same compound, the MIC [20] was 4 µg/mL (≈ 8.56 µM).

In the case of `C=CCc1cc(CN2CCC(N3CCNCC3)CC2)c(O)c(-c2ccc(O)c(CC=C)c2)c1`, the MIC90 [1] is reported as 32 µg/mL (≈ 71.5 µM) and the MIC90 [2] is reported as greater than 256 µg/mL.

`C=CCc1cc(CN2CCN(C(=O)OC(C)(C)C)CC2)c(O)c(-c2ccc(O)c(CC=C)c2)c1` gave an MIC90 [1] greater than 256 µg/mL and an MIC90 [2] greater than 256 µg/mL.
